# From US8632821B2, “Use of xenon for treating hypersensitivity to pain” (L'Air Liquide, Société Anonyme pour l'Etude et …, priority 2009, dated 2014)
# “Also recorded” adds a separate entry of the source.
# Test system: male Sprague-Dawley rats
# Assay: Carrageenan model of inflammatory pain, paw-pressure vocalization test (Randall-Selitto)
# Format: in vivo, rat
# Protocol: In order to show the efficacy of the gas mixture according to the invention in the prevention of post-traumatic hyperalgesia, a model of inflammatory pain was used in rats, namely male Sprague-Dawley rats, in the context of preclinical studies.
# An inflammatory product, carrageenan (0.2 ml of saline solution with 1% of carrageenan), was injected subcutaneously into the sole of the hind paw of a rat.
# Two xenon concentrations by volume were tested, namely: • a ternary gas mixture made up of 25% Xe+25% N2+50% O2, and • a binary gas mixture made up of 50% Xe+50% O2.
# The nociceptive threshold, i.e. the pain threshold, was evaluated using the paw-pressure vocalization test (Randall-Selitto), in which increasing pressures (measured in grams) are applied to the hind paw of the rat until the rat squeaks.
# More specifically, on Day 0 (D0), the inflammatory product, i.e. the carrageenan (Car), was injected into a hind paw of the rats.
# The exposure of the rats to the gases by inhalation begins 1 h 45 after the injection of Car and lasts for 1 h 45. The nociceptive threshold is evaluated 1 h 30, 2 h 30, 3 h 00, 3 h 30 and 4 h 30 after the injection of Car and then once a day until a return to the basal nociceptive threshold.
structure (smiles),measurement,setting,value
[Xe] [xenon],"analgesic effect during administration, 50% content compared with 25% content","50% Xe+50% O2 (FIG. 2A) versus 25% Xe+25% N2+50% O2 (FIG. 1A), inflamed paw",more effective
same,analgesic effect during administration (nociceptive threshold),"inhaled xenon 25% or 50% by volume, exposure 1 h 45 starting 1 h 45 after carrageenan, inflamed paw",has an analgesic effect
same,duration of delayed hyperalgesia on the inflamed paw,"xenon at 25% (25% Xe+25% N2+50% O2) inhaled 1 h 45, control air/Car 4 days, FIG. 1A",2 days
same,delayed hyperalgesia on the inflamed paw,"xenon at 50% (50% Xe+50% O2) inhaled 1 h 45, FIG. 2A",totally prevents
same,delayed hyperalgesia on the non-inflamed paw,"xenon at 50% (50% Xe+50% O2) inhaled 1 h 45, FIG. 2B",totally prevents; also recorded: completely prevents
